Experiments:
Conditions in all cases: 48 h
SEM cells [1] = experiment: AUC of viability dose-response curve (% viability x log10 dose units); higher = less sensitive
Procedure, shortened: (§1)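 Seeding of medium-adapted leukemia cells was at 500 or 1000 cells/well in 1536-well plates, followed by 48 h at 37°C with library compounds in DMSO at 11 threefold doses from 47 μM to 0.79 nM. CellTiter-Glo One luminescence was normalised per plate to DMSO and cell-free wells and fitted as a four-parameter log-logistic function of log10 dose. Area under the curve was integrated by trapezoidal rule, with curves exceeding full viability scaled and curves failing quality control removed.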

NOMO1 [2] = experiment: as above
Procedure, shortened: as §1

P12-Ichikawa [3] = experiment: as above
Procedure, shortened: as §1

SEM cells [4] = experiment: cell viability relative to DMSO control; higher = less cytotoxic
Procedure, shortened: (§2)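 Viability was expressed as a per-plate percentage of DMSO wells, with cell-free wells as background. Leukemia cells (NOMO1 or SEM at 500 cells/well, P12-Ichikawa at 1000 cells/well) were adapted for at least four passages in each medium and seeded in 1536-well plates (5 μl). Library compounds in DMSO were pin-dosed over an 11-point threefold series from 47 μM to 0.79 nM, and CellTiter-Glo One luminescence was read after 48 h at 37°C.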

NOMO1 [5] = experiment: as above
Procedure, shortened: as §2

P12-Ichikawa [6] = experiment: as above
Procedure, shortened: as §2

CCCCOc1c(C(=O)c2c(F)cc(C)cc2F)cnc2[nH]ncc12
AUC of viability dose-response curve
Conditions	NOMO1 [2]	P12-Ichikawa [3]	SEM cells [1]
HPLM + 10% dialyzed FBS	460	470	410
RPMI 5 mM glucose + 10% FBS	444	458	410
RPMI 5 mM glucose + 10% dialyzed FBS	424	435	413

cell viability [%]
Conditions	NOMO1 [5]	P12-Ichikawa [6]	SEM cells [4]
HPLM + 10% dialyzed FBS, 0.000781 µM	95.9	97.5	107
HPLM + 10% dialyzed FBS, 0.00234 µM	113	102	111
HPLM + 10% dialyzed FBS, 0.00702 µM	107	104	104
HPLM + 10% dialyzed FBS, 0.0211 µM	103	109	110
HPLM + 10% dialyzed FBS, 0.0632 µM	103	107	115
HPLM + 10% dialyzed FBS, 0.19 µM	109	89.6	108
HPLM + 10% dialyzed FBS, 0.569 µM	103	104	108
HPLM + 10% dialyzed FBS, 1.71 µM	119	107	92
HPLM + 10% dialyzed FBS, 5.12 µM	89.1	102	70.4
HPLM + 10% dialyzed FBS, 15.4 µM	96.2	91.3	64.1
HPLM + 10% dialyzed FBS, 46.1 µM	68.9	95.5	30.9
RPMI 5 mM glucose + 10% FBS, 0.000781 µM	89.4	104	104
RPMI 5 mM glucose + 10% FBS, 0.00234 µM	98.2	99	105
RPMI 5 mM glucose + 10% FBS, 0.00702 µM	82.7	107	103
RPMI 5 mM glucose + 10% FBS, 0.0211 µM	96.7	102	113
RPMI 5 mM glucose + 10% FBS, 0.0632 µM	98.7	104	114
RPMI 5 mM glucose + 10% FBS, 0.19 µM	94	108	118
RPMI 5 mM glucose + 10% FBS, 0.569 µM	95.6	103	114
RPMI 5 mM glucose + 10% FBS, 1.71 µM	93.6	105	89.6
RPMI 5 mM glucose + 10% FBS, 5.12 µM	98.9	88.4	60.6
RPMI 5 mM glucose + 10% FBS, 15.4 µM	90.3	94.4	71.8
RPMI 5 mM glucose + 10% FBS, 46.1 µM	79.1	77.9	35.6
RPMI 5 mM glucose + 10% dialyzed FBS, 0.000781 µM	97.6	107	93.2
RPMI 5 mM glucose + 10% dialyzed FBS, 0.00234 µM	96.3	104	96.5
RPMI 5 mM glucose + 10% dialyzed FBS, 0.00702 µM	100	102	96.9
RPMI 5 mM glucose + 10% dialyzed FBS, 0.0211 µM	92.6	104	86.8
RPMI 5 mM glucose + 10% dialyzed FBS, 0.0632 µM	92.7	101	107
RPMI 5 mM glucose + 10% dialyzed FBS, 0.19 µM	85.5	97.4	106
RPMI 5 mM glucose + 10% dialyzed FBS, 0.569 µM	83.1	93.8	104
RPMI 5 mM glucose + 10% dialyzed FBS, 1.71 µM	86.7	94.6	84.4
RPMI 5 mM glucose + 10% dialyzed FBS, 5.12 µM	70.6	78.9	71.6
RPMI 5 mM glucose + 10% dialyzed FBS, 15.4 µM	88.4	89.6	56.8
RPMI 5 mM glucose + 10% dialyzed FBS, 46.1 µM	84.3	81.3	25.3

From the supplement of paper PMC11451515
